Consider five compounds from US11015061B2, “Phthalocyanine-based compound and uses of same” (YAMAMOTO CHEMICALS, INC., priority 2017, dated 2021).

Holding throughout (type): physicochemical
The nature of data set [1]: Absorption spectrum of toluene solution (maximum absorption, gram absorption coefficient). As to conditions: for gram absorption coefficient: at maximum absorption. As for the experimental part:
A toluene solution of the compound obtained in this way had maximum absorption at 734.0 nm, and the gram absorption coefficient thereof was 1.21×10^5 mL/g·cm. The absorption spectrum chart thereof is illustrated in FIG. 1.

The nature of data set [2]: Visible light transmittance of chloroform solution. As to conditions: spectrum converted to transmittance 10% at near-infrared maximum absorption wavelength. As for the experimental part: The visible light transmittance of the phthalocyanine-based compound of the present invention and the comparative example compounds was measured by the following measurement method.
Each of the phthalocyanine compounds ([…]) and approximately 90 mL of chloroform were put into a 100 mL volumetric flask, and the solution in the flask was irradiated with ultrasonic waves for 30 minutes and left to stand for 2 hours at room temperature. Then, chloroform was added thereto such that the meniscus of the solution matched up with the calibration mark on the volumetric flask, thereby preparing a 10 mg/L phthalocyanine solution. The prepared solution was put into a 1 cm×1 cm cell made of PYREX (registered trademark), and the absorption spectrum thereof was measured using a spectrophotometer (produced by Hitachi, Ltd.: Spectrophotometer U-3500).
The absorption spectrum measured as above was converted such that the absorbance became 1.0, that is, the transmittance became 10% at the maximum absorption wavelength in a near-infrared range, thereby obtaining a transmission spectrum. […] At 460 nm, the transmittance of the compound of the present invention was approximately the same as the transmittance of Comparative Examples 1 and 2.

Data set [3] is described as follows: Tts (total solar transmittance) of heat ray shielding film. As to conditions: heat ray shielding film (5 g compound, 50 g acryl resin LP-45M, 2.5 μm on PET) on 3 mm glass plate; JIS R3106. The source says:
The phthalocyanine compound (Specific Example (1)-30) produced in Example 1 (5 g), 50 g of an acryl resin LP-45M (trade name, produced by Soken Chemical & Engineering Co., Ltd.), 20 g of methyl ethyl ketone, and 20 g of toluene were mixed and stirred together, thereby producing a resin composition.
As a transparent substrate, a polyethylene terephthalate film (PET film) having a thickness of 100 μm was bar-coated with the resin composition such that the thickness thereof became 2.5 μm, and then the applied resin composition was dried for 3 minutes at 100° C. Furthermore, the other surface of the PET film (surface not being coated with the resin composition) was bar-coated with a transparent acryl copolymer-based pressure sensitive adhesive such that the thickness thereof became 20 μm, and the applied pressure sensitive adhesive was dried and cured for 3 minutes at 100° C. Thereafter, a release film was bonded to the surface of the pressure sensitive adhesive, thereby producing a heat ray shielding film.
(§1) In the evaluation test, the release film was peeled from the produced heat ray shielding film, then the heat ray shielding film was compressed on a 5 cm×5 cm×3 mm (thickness) glass plate, and a test piece created in this way was used.
By using U-3500 type recording spectrophotometer produced by Hitachi, Ltd. as a measurement instrument, Tts of the laminated glass sample was measured based on JIS R3106 “Testing method for transmittance, reflectance, emissivity, and solar heat gain coefficient of flat glasses”.
Tts (Total solar energy transmitted through a glazing) represents a total solar transmittance.

Data set [4] can be described thus: Light fastness test of heat ray shielding film. The settings on record: xenon light 200 hours at 550 W/h, absorbance integrated 400 to 900 nm. The procedure: as §1
For a light fastness test, the absorption spectrum of the test piece was measured using a spectrophotometer (produced by Hitachi, Ltd.: Spectrophotometer U-3500) and adopted as a spectrum before light fastness test. Then, the test piece used for measuring the spectrum before test was irradiated with light for 200 hours at 550 W/h by using a xenon light fastness tester (produced by Toyo Seiki Seisaku-sho, Ltd.: SUNTEST XLS+). The absorption spectrum of the test piece irradiated with light was measured using the spectrophotometer and adopted as a spectrum after light fastness test.
(§2) In each of the spectra measured as above before and after the light fastness⋅heat resistance test, the values of absorbance within a range of 400 to 900 nm were integrated, and a difference between the integrated value before the light fastness⋅heat resistance test and the integrated value after the light fastness⋅heat resistance test was calculated.
(§3) The difference ΔE between the absorbance before the light fastness⋅heat resistance test and the absorbance after the light fastness⋅heat resistance test is expressed by the following equation. ΔE (%)={E(400 to 900 nm in E1)−E(400 to 900 nm in E2)}/E(400 to 900 nm in E1)×100
(§4) E1 represents the spectrum before test, E2 represents the spectrum after test, and Σ represents integration of the values of absorbance.
(§5) The larger the value of ΔE, the greater the spectrum change between before and after the light fastness⋅heat resistance test.

The nature of data set [5]: Heat resistance test of heat ray shielding film. The settings on record: 200 hours at 100° C., absorbance integrated 400 to 900 nm. As for the experimental part:
as §1
For a heat resistance test, the test piece used for measuring the spectrum before test as described above was treated with heat for 200 hours at a temperature of 100° C. in a thermostat (produced by Yamato Scientific co., ltd.: IG400). By using the spectrophotometer, the absorption spectrum of the heat-treated test piece was measured and adopted as a spectrum after heat resistance test.
as §2, §3, §4, §5

Data set [6] is described as follows: Tts of laminated glass sample. The settings on record: 0.76 mm PVB interlayer with 0.013 g compound per 100 g resin, JIS R3106. As for the experimental part:
(§6) The phthalocyanine-based compound (Specific Example (1)-30) produced in Example 1 (0.013 g) was dissolved in 40 g of triethylene glycol-di-2-ethylhexanoate as an organic ester plasticizer. The obtained solution was added to 100 g of a polyvinyl butyral resin (trade name: BH-3, produced by SEKISUI CHEMICAL CO., LTD.), thoroughly melted and kneaded using a mixing roll, and extruded using an extruder, thereby obtaining an interlayer having a thickness of 0.76 mm.
(§7) The interlayer was cut in size of 100 mm×100 mm, interposed between heat ray absorbing glass plates (100 mm (length)×100 mm (width)×2.0 mm (thickness)) prepared based on JIS R3208, put into a rubber bag, and deaerated for 20 minutes at a degree of vacuum of 2.6 kPa. Then, the deaerated laminate was moved into an oven and further hold for 30 minutes at 90° C. to vacuum press. Thereafter, the laminate was compressed for 20 minutes in an autoclave under the condition of a temperature of 130° C. and a pressure of 1.3 MPa, thereby obtaining a laminated glass sample.
By using U-3500 type recording spectrophotometer produced by Hitachi, Ltd. as a measurement instrument, Tts of the laminated glass samples was measured based on JIS R3106 “Testing method for transmittance, reflectance, emissivity, and solar heat gain coefficient of flat glasses”.

Data set [7] in a line: Visible light transmittance of laminated glass sample. The settings on record: 380 to 780 nm, JIS R3212. As for the experimental part: as §6, §7
By using U-3500 type recording spectrophotometer produced by Hitachi, Ltd. as a measurement instrument, the visible light transmittance of the laminated glass samples at a wavelength of 380 to 780 nm was measured based on JIS R3212 “Test methods of safety glazing materials for road vehicles”.

As to `[O]=[V+2].c1ccc(OCCCCc2ccc(CCCCOc3ccccc3)c3c2-c2nc-3nc3[n-]c(nc4nc(nc5[n-]c(n2)c2c(CCCCOc6ccccc6)ccc(CCCCOc6ccccc6)c52)-c2c(CCCCOc5ccccc5)ccc(CCCCOc5ccccc5)c2-4)c2c(CCCCOc4ccccc4)ccc(CCCCOc4ccccc4)c32)cc1` [Specific Example (1)-37], in data set [1], the maximum absorption is recorded as 735.5 nm and the gram absorption coefficient was 86300 mL/g/cm. Moreover, in data set [2], the “Transmittance (%) 460 nm” value came to 98.0% and the “Transmittance (%) 610 nm” value is on record as 88.1%. The compound further yielded a Tts in data set [3] of 85.5%. In data set [4], the “ΔE (%) Light fastness” value worked out at 5%. The “ΔE (%) Heat resistance” value in data set [5] came out at 3%. This compound also returned a Tts in data set [6] of 52.6%. Further, in data set [7], the Visible light transmittance worked out at 77.9%.
In data set [1], `COCCCCc1ccc(CCCCOC)c2c1-c1nc-2nc2[n-]c(nc3nc(nc4[n-]c(n1)c1c(CCCCOC)ccc(CCCCOC)c41)-c1c(CCCCOC)ccc(CCCCOC)c1-3)c1c(CCCCOC)ccc(CCCCOC)c21.[O]=[V+2]` [Specific Example (1)-30] came in with a maximum absorption of 734.0 nm and a gram absorption coefficient of 121000 mL/g/cm. In data set [2], the “Transmittance (%) 460 nm” value was 98.1% and the “Transmittance (%) 610 nm” value stood at 88.4%. The same compound gave a Tts in data set [3] of 86.1%. Further, in data set [4], the “ΔE (%) Light fastness” value is listed as 5%. Further, the “ΔE (%) Heat resistance” value in data set [5] came out at 6%. Also, in data set [6], the Tts was 53.2%. In data set [7], this compound came in with a Visible light transmittance of 78.1%.
In data set [1], `Fc1ccccc1OCCCCc1ccc(CCCCOc2ccccc2F)c2c1-c1nc-2nc2[n-]c(nc3nc(nc4[n-]c(n1)c1c(CCCCOc5ccccc5F)ccc(CCCCOc5ccccc5F)c41)-c1c(CCCCOc4ccccc4F)ccc(CCCCOc4ccccc4F)c1-3)c1c(CCCCOc3ccccc3F)ccc(CCCCOc3ccccc3F)c21.[O]=[V+2]` [Specific Example (1)-43] showed a maximum absorption of 735.5 nm and a gram absorption coefficient of 78900 mL/g/cm. Besides, in data set [2], the “Transmittance (%) 460 nm” value is 97.6% and the “Transmittance (%) 610 nm” value stood at 88.0%. Moreover, the Tts in data set [3] is 85.7%. In data set [4], the “ΔE (%) Light fastness” value is 2%. Also, the “ΔE (%) Heat resistance” value in data set [5] came to 3%. The same compound yielded a Tts in data set [6] of 52%. In data set [7], the Visible light transmittance is 77.6%.
Take `COCCCCc1ccc(CCCCOC)c2c1-c1nc-2nc2[n-]c(nc3nc(nc4[n-]c(n1)c1c(CCCCOC)ccc(CCCCOC)c41)-c1c(CCCCOC)ccc(CCCCOC)c1-3)c1c(CCCCOC)ccc(CCCCOC)c21.[Cu+2]` [Specific Example (1)-31]: in data set [1], the maximum absorption is listed as 705.5 nm and the gram absorption coefficient is 78900 mL/g/cm. In addition, in data set [2], the “Transmittance (%) 460 nm” value stood at 99.2% and the “Transmittance (%) 610 nm” value is 88.3%. Also, in data set [3], the Tts is 86%. Also, in data set [4], the “ΔE (%) Light fastness” value was 3%. Besides, in data set [5], the “ΔE (%) Heat resistance” value is 3%. Moreover, the Tts in data set [6] is 51.5%. The same compound returned a Visible light transmittance in data set [7] of 77.7%.
Consider `COc1cccc(OC)c1OCCCCc1ccc(CCCCOc2c(OC)cccc2OC)c2c1-c1nc-2nc2[n-]c(nc3nc(nc4[n-]c(n1)c1c(CCCCOc5c(OC)cccc5OC)ccc(CCCCOc5c(OC)cccc5OC)c41)-c1c(CCCCOc4c(OC)cccc4OC)ccc(CCCCOc4c(OC)cccc4OC)c1-3)c1c(CCCCOc3c(OC)cccc3OC)ccc(CCCCOc3c(OC)cccc3OC)c21.[O]=[V+2]` [Specific Example (1)-44], for which, in data set [1], the maximum absorption is 734.5 nm and the gram absorption coefficient is 67500 mL/g/cm. In data set [2], the “Transmittance (%) 460 nm” value was 98.3% and the “Transmittance (%) 610 nm” value turned out to be 89.0%. Also, the Tts in data set [3] is 85.6%. Moreover, the “ΔE (%) Light fastness” value in data set [4] came to 3%. The “ΔE (%) Heat resistance” value in data set [5] amounted to 4%. Also, the Tts in data set [6] came out at 52.9%. Further, the Visible light transmittance in data set [7] worked out at 77.9%.
